Measured values as given in patent publication US8507464B2, “Phosphoramidate alkylator prodrugs” (Threshold Pharmaceuticals, Inc., priority 2005, dated 2013).
Like-named read-outs stand apart in the source and are kept apart here.

Experiments:
in vivo [1] = assay: in vivo
[2] = system: HT-29 human colon carcinoma xenograft; assay: HT-29 human colon carcinoma xenograft mouse model (Example 47); assay type: in vivo; settings: for % Inhibition vs Group 1: vs vehicle
Experimental: Female CB17/SCID mice (purchased from Charles River, Cambridge, Mass.), 7-8 weeks of age, were allowed to acclimatize for at least three days, and handled under pathogen-free conditions. Human colon carcinoma cell line HT-29 was obtained from the American Type Culture Collection. The cell lines were cultured in RPMI 1640 media supplemented with 10% fetal bovine serum. Cells were maintained in a 37° C. incubator with 5% CO2. The HT-29 cells were harvested from culture and inoculated at 3×10^6 cells/animal in the peritoneal subcutaneous space. When the tumors grew to an average volume of 100 mm^3 (day 8), each group of 10 mice was administered, for three weeks, vehicle alone (saline and PEG (10 mL/kg each), Group 1), Compound 36 alone (dissolved in 30% cyclodextrin in PBS) at a daily dose of 20, 60, or 200 mg/kg (Groups 2, 3 and 4, respectively), and Compound 36 at a daily dose of 20, 60, and 200 mg/kg given 2-3 hours after a dose of 10 mg/kg of 5FU (in saline) (Group 5, 6 and 7, respectively) and compared to a group receiving only 5FU at 10 mg/kg (Group 8) as tabulated below.
The body weight of each mouse was recorded twice per week. Growth of each xenograft was monitored by externally measuring tumors in two dimensions using a digital caliper twice per week. Tumor volume (V) was determined by the following equation: V=(L×W^2)/2, where L is the length and W is the width of a xenograft. Tumor volumes were measured twice weekly.

in vivo [3] = settings: CD-1, mouse, 50 mg/kg
CYP1A2 = CYP1A2 (Homo sapiens, UniProt P05177); assay: in vitro; settings: pH 7.4, probe phenacetin
Experimental: (§1) A control reaction with no inhibitor was also prepared. After a suitable incubation at 37° C., the reactions were terminated by the addition of […] of 10% formic acid in water ([…] of acetonitrile for 2C19). […] Each assay was performed in duplicate.

CYP2D6 = CYP2D6 (Homo sapiens, UniProt P10635); assay: in vitro; settings: pH 7.4, probe dextromethorphan
Experimental: as §1

CYP3A4 = CYP3A4 (Homo sapiens, UniProt P08684); assay: in vitro
Experimental: as §1

[4] = system: human (HLM) liver microsomal proteins; assay: Metabolic stability in liver microsomal protein; assay type: in vitro ADME; settings: Table 2A, second study, 5 μM
HT29 cells [5] = assay: Antiproliferation assay - oxygen dependence; assay type: cell-based; settings: Homo sapiens
From the text: . […] The calculated IC50 values (μM) are tabulated in Table Y1 (H460 cells) or Table Y2 (HT29 cells) below.

H460 xenograft = H460 xenograft in nude mice, ip bolus or ip infusion with Cisplatin (Example 54); assay type: in vivo, mouse; settings: alone or in combination with CDDP
Experimental: Example 54 describes efficacy of Compound 25 via an ip bolus injection or ip infusion alone or in combination with Cisplatin in the H460 xenograft mouse model. Female Nu-Foxn1^nu homozygous nu/nu mice (purchased from Charles River, Cambridge, Mass.), 6 weeks of age, were allowed to acclimatize for at least three days, and handled under pathogen-free conditions. Human H460 cells were obtained from the American Type Culture Collection. The cell lines were cultured and harvested as described in Example 47 and inoculated at 3×10^6 cells/animal in the peritoneal subcutaneous space. When the tumors grew to an average volume of 100 mm^3 (day 8), each group of mice (ten per group) was administered, for three weeks, as tabulated in the table below: Compound 25 (formulated as a 15 mg/ml saline solution, administration route—i.p., administrated 2 h before CDDP on the days the combination therapy is scheduled) and CDDP in saline, IV.
The body weight and tumor volume was determined as described in Example 47.

PC3 cells = assay: Clonogenic assay - oxygen dependence; settings: Homo sapiens
Irs1SF = assay: Clonogenic survival - DNA mutant repair cells; settings: Cricetulus griseus
HT29 cells [6] = assay: Clonogenic assay - oxygen dependence; settings: Homo sapiens
NCI H460 xenograft = assay: NCI H460 non small cell lung carcinoma xenograft mouse model (Example 48); assay type: in vivo; settings: day 29, vs vehicle
Experimental: Female CB17/SCID mice (purchased from Charles River, Cambridge, Mass.), 7-8 weeks of age, were allowed to acclimatize for at least three days, and handled under pathogen-free conditions. Human […] cell line NCI H460 was obtained from the American Type Culture Collection. The cell lines were cultured and harvested according to the procedure described in Example 47 and inoculated at 1×10^6 cells/animal in the peritoneal subcutaneous space. When the tumors grew to an average volume of 100 mm^3 (day 8), […], as tabulated in the table below: Compound 25 (2.5 mg/ml in 10% PEG; administration route—i.p.) and Taxol (1 mg/ml in 5% EtOH, 5% Cremophor and 90% saline; administration—i.v. 2 h after administration of Compound 25). The body weight and tumor volumes were measured as described in Example 47 above.
Results are presented in Table X2 based on tumor volume measurement on day 29 when vehicle treated mice had reached a volume of 946 mm^3. Groups of 5 mice receiving saline or no treatment were added in order to indicate any vehicle effects but are not used for comparisons in this analysis.

CYP3A4, sequence (P08684 whole entry): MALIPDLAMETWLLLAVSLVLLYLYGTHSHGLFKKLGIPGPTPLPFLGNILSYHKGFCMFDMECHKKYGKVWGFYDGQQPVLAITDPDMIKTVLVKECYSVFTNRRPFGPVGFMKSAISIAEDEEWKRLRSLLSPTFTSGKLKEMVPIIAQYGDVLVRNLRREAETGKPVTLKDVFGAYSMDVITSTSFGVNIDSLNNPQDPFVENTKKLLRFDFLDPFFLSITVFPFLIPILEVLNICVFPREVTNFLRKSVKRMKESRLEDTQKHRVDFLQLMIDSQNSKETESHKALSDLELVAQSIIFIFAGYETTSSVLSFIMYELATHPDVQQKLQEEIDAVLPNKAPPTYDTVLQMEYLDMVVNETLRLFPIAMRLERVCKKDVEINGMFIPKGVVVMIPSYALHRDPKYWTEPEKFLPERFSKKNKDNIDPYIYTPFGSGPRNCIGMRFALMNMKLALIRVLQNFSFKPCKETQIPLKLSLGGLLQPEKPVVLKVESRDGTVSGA
CYP1A2, sequence (P05177 whole entry, species assumed): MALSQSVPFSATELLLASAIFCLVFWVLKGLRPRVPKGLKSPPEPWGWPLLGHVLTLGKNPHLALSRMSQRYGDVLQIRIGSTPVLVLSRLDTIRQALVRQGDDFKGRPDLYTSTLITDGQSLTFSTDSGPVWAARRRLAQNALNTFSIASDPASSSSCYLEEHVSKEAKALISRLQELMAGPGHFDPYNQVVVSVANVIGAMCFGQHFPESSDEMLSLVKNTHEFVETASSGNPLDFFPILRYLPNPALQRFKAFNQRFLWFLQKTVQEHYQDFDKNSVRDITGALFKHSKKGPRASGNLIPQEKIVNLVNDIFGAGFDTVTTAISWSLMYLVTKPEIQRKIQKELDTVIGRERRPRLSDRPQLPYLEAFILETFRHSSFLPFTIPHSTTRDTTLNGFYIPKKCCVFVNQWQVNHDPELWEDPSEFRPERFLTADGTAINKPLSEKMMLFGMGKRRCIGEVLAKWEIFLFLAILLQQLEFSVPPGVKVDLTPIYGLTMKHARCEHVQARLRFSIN
CYP2D6, sequence (P10635 whole entry): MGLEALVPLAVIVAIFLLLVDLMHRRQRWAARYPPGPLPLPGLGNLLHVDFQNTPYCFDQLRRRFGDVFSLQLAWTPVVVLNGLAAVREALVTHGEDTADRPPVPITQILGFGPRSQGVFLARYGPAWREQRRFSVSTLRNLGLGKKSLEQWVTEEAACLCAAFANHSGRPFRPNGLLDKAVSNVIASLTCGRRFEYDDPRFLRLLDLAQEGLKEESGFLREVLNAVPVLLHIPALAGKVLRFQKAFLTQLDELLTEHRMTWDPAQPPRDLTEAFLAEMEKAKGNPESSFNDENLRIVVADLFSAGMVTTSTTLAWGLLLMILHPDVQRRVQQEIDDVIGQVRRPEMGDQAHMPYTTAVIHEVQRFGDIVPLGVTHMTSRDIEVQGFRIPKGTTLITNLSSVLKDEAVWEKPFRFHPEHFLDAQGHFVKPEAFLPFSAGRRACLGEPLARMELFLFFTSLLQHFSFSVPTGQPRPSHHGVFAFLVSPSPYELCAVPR

Structure (SMILES): Cn1c(COP(=O)(NCCCl)NCCCl)cnc1[N+](=O)[O-] [Compound 36]
- MTD (in vivo [1]): 400 mg/kg
- % Inhibition vs Group 1 ([2]; Group 2: Compound 36 20 mg/kg daily, 3 weeks): 34.6%
- % Inhibition vs Group 1 ([2]; Group 3: Compound 36 60 mg/kg daily): 16.1%
- % Inhibition vs Group 1 ([2]; Group 4: Compound 36 200 mg/kg daily): 20.2%
- body weight and mortality ([2]; particularly high dose group): some degree of weight loss and occasional mortality
- AUC (in vivo [3]; ip): 1440 µg·h/mL
- Cmax (in vivo [3]; ip): 44 µg/mL
- Tmax (in vivo [3]; ip): 15 min
- half-life (in vivo [3]; ip): 11 min
- AUC (in vivo [3]; iv): 646 µg·h/mL
- Cmax (in vivo [3]; iv): 27.7 µg/mL
- Tmax (in vivo [3]; iv): 5 min
- half-life (in vivo [3]; iv): 14.1 min

Structure (SMILES): Cn1c(COP(=O)(NCCBr)NCCBr)cnc1[N+](=O)[O-] [Compound 25]
- IC50 (CYP1A2): > 50 µM
- IC50 (CYP2D6): > 50 µM
- IC50 (CYP3A4; pH 7.4, IC50 3A4 Midazolam, probe substrate midazolam): > 50 µM
- IC50 (CYP3A4; pH 7.4, IC50 3A4 Nifedipine, probe substrate nifedipine): > 50 µM
- IC50 (CYP3A4; pH 7.4, IC50 3A4 Testosterone, probe substrate testosterone): > 50 µM
- Metabolic stability (% at 30 min) HLM [4]: 127%
- IC50 (HT29 cells [5]; HT-29, read-out: IC50 in HT29 cells, 0.6% O2): 25 µM
- IC50 (HT29 cells [5]; HT-29, read-out: IC50 in HT29 cells, Air): > 100 µM
- IC50 (HT29 cells [5]; HT-29, read-out: IC50 in HT29 cells, N2): 2 µM
- efficacy of continuous application (H460 xenograft): efficacious
- IC90 (PC3 cells; PC-3, read-out: IC90 PC3 Air): 50 µM
- IC90 (PC3 cells; PC-3, read-out: IC90 PC3 N2): 0.3 µM
- IC90 (Irs1SF; read-out: IC90 Irs1SF Air): 20 µM
- IC90 (Irs1SF; read-out: IC90 Irs1SF N2): 0.02 µM
- IC90 (HT29 cells [6]; HT-29, read-out: IC90 HT29 0.6% O2): 3 µM
- IC90 (HT29 cells [6]; HT-29, read-out: IC90 HT29 Air): 40 µM
- IC90 (HT29 cells [6]; HT-29, read-out: IC90 HT29 N2): 0.2 µM
- % Inhibition vs Group 2 (NCI H460 xenograft; Group 3: Compound 25 25 mg/kg (q1d × 5)/week × 2 weeks): 50.1%
- % Inhibition vs Group 2 (NCI H460 xenograft; Group 4: Compound 25 50 mg/kg (q2d × 3)/week × 2 weeks): 52%
- % Inhibition vs Group 2 (NCI H460 xenograft; Group 5: Compound 25 100 mg/kg (q7d × 1)/week × 2 weeks): 46.7%
